Measurements as given in patent publication US20190284162A1, “USE OF A DIFLUORO-(2-HYDROXYPROPYL)PYRIDINE COMPOUND AS A FUNGICIDE FOR CONTROL OF PHYTOPATHOGENIC FUNGI OF CORN” (Dow AgroSciences LLC, priority 2016, published 2019).

Key:
Type in all cases: in vivo
Phaeosphaeria maydis = assay: Field assessment of Phaeosphaeria maydis (PHSPMA), phaeosphaeria leaf spot, in corn
Excerpt: Field Assessment of Phaeosphaeria maydis (PHSPMA) in Corn:
(§1) A fungicidal treatment containing Compound I, applied alone in an EC formulation at 100 grams of active ingredient per hectare (g ai/ha) and tank mixed with an adjuvant (Agnique BP-420, 50% w/w at 0.3% v/v), was sprayed on corn plants (ZEAMX, P30R50 variety) twice at the growth stages 18 (8 leaves unfolded, application A) and 39 (stem elongation; prior to tassle emergence, application B) at rates of 25, 50, 100, 125 and 150 g ai/ha. The experimental plots were inoculated with phaeosphaeria leaf spot 24 hr after each application. The treatment was part of an experimental trial designed as a randomized complete block with four replications and a plot of approximately 1×3 m. Compound I was applied at water volume of 200 L/ha, using a backpack precision plot sprayer (BKPCKAIR, 2 and 3 m band width, Flat Fan XR110.015 Nozzle) and pressurized at 45 psi.
(§2) Disease severity (percentage of visual diseased foliage on whole plot) was assessed six times (15-49 days after application B, DAAB). The disease infection was recorded following EPPO PP1/26 guideline prescriptions. Area under the disease progress curve (AUDPC) was calculated for each plot using the sets of recorded severity data. Relative AUDPC (% control based on AUDPC) was calculated as percent of the nontreated control.

Cercospora zeae-maydis = assay: Field assessment of Cercospora zeae-maydis (CERCZM), grey leaf spot, in corn
Excerpt: Field Assessment of Cercospora zeae-Maydis (CERCZM) in Corn:
as §1, with “Formula” for “P30R50”, “grey” for “phaeosphaeria”
as §2

Exserohilum turcicum = assay: Field assessment of Exserohilum turcicum (SETOTU) in corn
Excerpt: Field Assessment of Exserohilum turcicum (SETOTU) in Corn: A fungicidal treatment containing Compound I, tank mixed with an adjuvant (Agnique BP-420, 50% w/w at 0.3% v/v), was sprayed on corn plants once at the growth stage 51 (beginning tassel emergence) at rates of 50, 75, 100, and 150 g ai/ha. The treatment was part of an experimental trial designed as a randomized complete block with four replications. Compound I was applied at water volume of 140 L/ha, using a backpack precision plot sprayer. Disease severity was assessed as combined percent visual necrosis on leaves ear-1, ear and ear+1. Severity was assessed twice at 24 DAA1 (days after application 1) and 32 DAA1.

Puccinia polysora = assay: Field assessment of Puccinia polysora (PUCCPY), brown rust, in corn
Excerpt: Field Assessment of Puccinia polysora (PUCCPY) in Corn:
as §1, with “brown rust” for “phaeosphaeria leaf spot”
as §2

[1] = 25 g ai/ha, with adjuvant Agnique BP-420, two applications
[2] = 50 g ai/ha, with adjuvant Agnique BP-420, two applications
[3] = 100 g ai/ha, with adjuvant Agnique BP-420, two applications
[4] = 100 g ai/ha, without adjuvant, two applications
[5] = 125 g ai/ha, with adjuvant Agnique BP-420, two applications
[6] = 150 g ai/ha, with adjuvant Agnique BP-420, two applications

Compound: N#Cc1ccc(Oc2ccc(C(F)(F)C(O)(Cn3ncnc3S)c3ccc(F)cc3F)nc2)cc1 (centres unmarked) [Compound I, 4-((6-(2-(2,4-difluorophenyl)-1,1-difluoro-2-hydroxy-3-(5-mercapto-1H-1,2,4-triazol-1-yl)propyl)pyridin-3-yl)oxy)benzonitrile]
- Disease (% Control) PHSPMA, based on AUDPC (Phaeosphaeria maydis; [1]): B (51-75)
- Disease (% Control) PHSPMA, based on AUDPC (Phaeosphaeria maydis; [2]): B (51-75)
- Disease (% Control) PHSPMA, based on AUDPC (Phaeosphaeria maydis; [3]): A (76-100)
- Disease (% Control) PHSPMA, based on AUDPC (Phaeosphaeria maydis; [4]): B (51-75)
- Disease (% Control) PHSPMA, based on AUDPC (Phaeosphaeria maydis; [5]): A (76-100)
- Disease (% Control) PHSPMA, based on AUDPC (Phaeosphaeria maydis; [6]): A (76-100)
- Disease (% Control) CERCZM, based on AUDPC (Cercospora zeae-maydis; [1]): B (51-75)
- Disease (% Control) CERCZM, based on AUDPC (Cercospora zeae-maydis; [2]): B (51-75)
- Disease (% Control) CERCZM, based on AUDPC (Cercospora zeae-maydis; [3]): B (51-75)
- Disease (% Control) CERCZM, based on AUDPC (Cercospora zeae-maydis; [4]): C (26-50)
- Disease (% Control) CERCZM, based on AUDPC (Cercospora zeae-maydis; [5]): A (76-100)
- Disease (% Control) CERCZM, based on AUDPC (Cercospora zeae-maydis; [6]): A (76-100)
- Disease severity: combined visual necrosis on leaves ear-1, ear and ear+1 (Exserohilum turcicum; 50 g ai/ha, 24 DAA1, tank mixed with Agnique BP-420, untreated control 36.1): 46.5%
- Disease severity: combined visual necrosis on leaves ear-1, ear and ear+1 (Exserohilum turcicum; 50 g ai/ha, 32 DAA1, tank mixed with Agnique BP-420, untreated control 50.4): 45.5%
- Disease severity: combined visual necrosis on leaves ear-1, ear and ear+1 (Exserohilum turcicum; 75 g ai/ha, 24 DAA1, tank mixed with Agnique BP-420, untreated control 36.1): 45.0%
- Disease severity: combined visual necrosis on leaves ear-1, ear and ear+1 (Exserohilum turcicum; 75 g ai/ha, 32 DAA1, tank mixed with Agnique BP-420, untreated control 50.4): 44.2%
- Disease severity: combined visual necrosis on leaves ear-1, ear and ear+1 (Exserohilum turcicum; 100 g ai/ha, 24 DAA1, tank mixed with Agnique BP-420, untreated control 36.1): 37.2%
- Disease severity: combined visual necrosis on leaves ear-1, ear and ear+1 (Exserohilum turcicum; 100 g ai/ha, 32 DAA1, tank mixed with Agnique BP-420, untreated control 50.4): 31.6%
- Disease severity: combined visual necrosis on leaves ear-1, ear and ear+1 (Exserohilum turcicum; 150 g ai/ha, 24 DAA1, tank mixed with Agnique BP-420, untreated control 36.1): 37.9%
- Disease severity: combined visual necrosis on leaves ear-1, ear and ear+1 (Exserohilum turcicum; 150 g ai/ha, 32 DAA1, tank mixed with Agnique BP-420, untreated control 50.4): 33.3%
- Disease (% Control) PUCCPY, based on AUDPC (Puccinia polysora; [1]): A (76-100)
- Disease (% Control) PUCCPY, based on AUDPC (Puccinia polysora; [2]): A (76-100)
- Disease (% Control) PUCCPY, based on AUDPC (Puccinia polysora; [3]): A (76-100)
- Disease (% Control) PUCCPY, based on AUDPC (Puccinia polysora; [4]): A (76-100)
- Disease (% Control) PUCCPY, based on AUDPC (Puccinia polysora; [5]): A (76-100)
- Disease (% Control) PUCCPY, based on AUDPC (Puccinia polysora; [6]): A (76-100)
